Measured values published in patent publication US6548042B2, “Bis-phosphonate compounds” (priority 2000, dated 2003).
Where “and” joins values, the source holds several entries; their conditions need not be identical. Equal entries are not always repeated.

How the values were obtained:
[1] = Biodistribution of HPLC-purified and nonpurified (crude) compound in nude rats; type: in vivo, congenitally athymic nude rats (Han rnu/rnu Rowett)
Protocol: Nude/nude rats with a body weight averaging 60 g were used in the biodistribution experiments. The aim of the study was to compare crude 3h with HPLC-purified 3h. The term “crude compound” refers to the diluted and neutralised labelling reaction mixture described hereinbefore. The compounds were administrated by tail vein injections of 200 μl for each animal, using three animals for each sample. 24 h after injection the animals were killed by a lethal injection and the tissue distribution determined.
Rats. […] At 24 h postinjection the animals were sacrificed, weighed and dissected.
To further evaluate the hydroxybisphosphonate 46a, biodistribution of this compound was obtained in rats. The goal of this experiment was to find whether there was a difference in the properties of the HPLC-purified compound as compared with a nonpurified sample.

[2] = Pharmacokinetics in mice by scintigraphy (gamma camera); type: in vivo, balb/c mice
Protocol: Pharmacokinetics in mice. Two animals weighing 20 g and 28 g were anaesthetized and given 250 μl single bolus tail vein injections containing 12 MBq of 46a. The animals were placed under a gamma camera and 2 min frames were collected for the following 2 h. The presented data refers to the animal weighing 20 g.
A gamma camera (ADAC, USA) equipped with a 6 mm pinhole collimator was used. Dynamic data were acquired using a 128×128 matrix size, the field of view was zoomed to the middle 25×25 cm of the camera, and 2 min frames were collected for 2 hours.
The progression from intravenous injection of the hydroxybisphosphonate 46a in mice (balb/c, 20 g) was monitored by means of scintigraphy for 2 h. Images were obtained and dynamic curves for the radioactivity detected in the kidneys and bladder were derived by interactively drawing regions around structures of interest (FIG. 9). […] This is due to the increased sensitivity in the middle of the image, where the accumulation occurs in the kidneys and bladder.

[3] = test system: OHS cells; assay: Antitumour efficacy, OHS osteogenic sarcoma model in nude rats; type: in vivo; conditions: for Mean disease-free latency: 7 days after cell inoculation
Protocol: Initially, a skeletal metastases model in nude rats, including the human breast carcinoma line MT-1 (1) was tested. A total of 1×10^6 cells were injected into the left vintricula of the heart (L.V.) of 4-5 weeks old nude rats (2). A primary osteogenic sarcoma model in nude rats, was established by intratibial (i.t.) injection of 1×10^6 OHS cells (3-5). A total of 20 animals, allocated in four groups (n=5 for each group) were used for both cell lines. The animals inoculated with MT-1 cells were treated with 200, 300 or 400 MBq/kg of 46a seven days after cell injection. The animals inoculated with OHS cells were treated with 100, 200 or 400 MBq/kg of 46a seven days after cell inoculation. The control groups (MT-1 and OHS) received saline only. Doses were corrected for the actual weight of each animal and administered by single bolus tail vein injections.
The OHS model had been established by intratibial injections of the osteogenic sarcoma (OHS) cell line in immuno-deficient rats.^86,87 Eventually, the rats develop palpable tibial tumours. At the time of treatment (7 days after cell inoculation) the tumours fill approximately 50-60% of the tibial cavity and have a substantial osteoid production closely resembling that of osteoblastic osteosarcomas in the clinic.^88 The model has been used to evaluate the antitumour efficacy of several drugs currently used in the treatment of bone-related cancer.
Disease-free latency was defined as the period between tumour cell inoculation and the time the diameter of the tumour-injected tibia had increased by 2-3 mm compared with that of the non-injected contralateral leg.

[4] = test system: MT-1 cells; assay: Bone lesions to healthy bone ratio in rat inoculated with MT-1 cells (scintigraphy, Bioscope); type: in vivo; conditions: 15 MBq i.v. seven days after MT-1 inoculation, 24 h
Protocol: Tumour lesion to healthy bone ratio. A rat weighing 114 g was given a single bolus tail vein injection of 15 MBq (500 μl) of 46a seven days after inoculation with 1×10^6 MT-1 cells. The animal was sacrificed 24 h postinjection. The whole animal was then placed under a gamma camera and images were obtained. The spine was then excised and cut into slices of 10 μm. The slices were molded in Epon and images were obtained with a beta camera.
A prototype real time autoradiography system (Bioscope 3225, IDEAS, Høvik, Norway) consisting of a double sided multiple strip silicon detector was used to obtain images of bone slices.
In order to obtain ratios of bone cancer lesions to healthy bone, the hydroxybisphosphonate 46a was injected into a rat inoculated with MT-1 cells (a human breast cancer cell line, see section 4.2.3.1.) seven days earlier. The animal was sacrified 24 h postinjection and whole body images were obtained by means of scintigraphy. […] The radioactivity distributions in slices of the spine were then measured with a device (Bioscope) for real time autoradiography. The resulting images were automatically aligned by means of an image correlation method (Personal communication Arne Skretting, The Norwegian Radium Hospital, Oslo). Finally, the aligned images were added in layers to reconstruct the whole spine. […] Abnormal uptake was detected in one slice only. […]

[5] = mouse, in vivo
[6] = Biodistribution of i.v. administered radioiodinated compounds in balb/c mice;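 note: healthy mice given radioiodinated bisphosphonic acids, with randomly chosen groups of three animals per time point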
[7] = all animals treated (100, 200, 400 MBq/kg)
[8] = 24 h postinjection, i.v., listed as 3h

O=P(O)(O)C(O)(Cc1cccc([131I])c1)P(=O)(O)O [46a, 1-hydroxy(m-[^131I and ^125I]-iodophenyl)-ethylidene-1,1-bisphosphonic acid]
Bone affinity of purified compound versus crude product ([1]; 24 h): 3 fold
Femur uptake ([1]; HPLC purified, nude/nude rats 60 g, 24 h): 1020 % g dose/g
Femur to soft tissue ratio ([1]; HPLC-purified sample, 24 h): > 45
Uptake in femur ([1]; HPLC-purified sample, 24 h): 16.44±1.96 % ID/g
Uptake in kidneys ([1]; HPLC-purified sample, 24 h): 0.36±0.03 % ID/g
Uptake in skull ([1]; HPLC-purified sample, 24 h): 5.84±0.35 % ID/g
Uptake in femur expressed as % gram dose per gram tissue ([1]; Rowett rats, 60 g, 24 h): 986 (Rowett rats, 60 g, 24 h) % gram dose per gram tissue
Uptake in stomach ([1]; Rowett rats, 60 g, 24 h): 0.05 ± 0.01 % ID/g
Uptake in the thyroid ([1]; Rowett rats, 60 g, 24 h): 0.02 ± 0.01 % injected dose/organ
Ratio between uptake in femur and kidney ([1]; Rowett rats, 60 g, 24 h, HPLC purified, listed as 1): 24 h) and 45.7 (femur/kidney,
Ratio between uptake in femur and kidney ([1]; Rowett rats, 60 g, 24 h, HPLC purified, listed as 3h): above 45
Femur to kidney ratio ([1]; nonpurified sample): 14
Femur to skull ratio ([1]; nonpurified sample): ~7
Uptake in the thyroid ([1]; nonpurified sample): 0.03±0.01 % of the total injected radioactivity
Uptake in femur ([1]; nonpurified sample, 24 h): 5.28±1.10 % ID/g
Injected activity accumulated in the bladder ([2]; after 2 hours, mouse 20 g, 12 MBq i.v.): 27%
Peak uptake in the kidneys (left and right) ([2]; at 45 min postinjection): 7.5 % of the injected dose
Biological half-life in the kidneys ([2]; from the peak at 45 min): 50 min
Estimated excretion of the injected dose ([2]; mouse, in vivo): 35%
Estimated retention of the injected dose ([2]; mouse, in vivo): 65%
Time of peak uptake in the kidneys ([2]; postinjection): 45 min
Disease-free latency, range ([3]; 100 MBq/kg): 18 to 32 days
Mean disease-free latency ([3]; 100 MBq/kg, n=5): 27 days
Survivors ([3]; 100 MBq/kg, n=5): one survivor
Disease-free latency, range ([3]; 200 MBq/kg): 26 to 36 days
Mean disease-free latency ([3]; 200 MBq/kg, n=5): 30 days
Survivors ([3]; 200 MBq/kg, n=5): one survivor
Disease-free latency, range ([3]; 400 MBq/kg): 26 to 36 days
Mean disease-free latency ([3]; 400 MBq/kg, n=5): 31 days
Long time survivors (>100 days) [3, 7]: 33%
Long time survivors (>100 days), animals [3, 7]: 5 of 15
Long time survivors ([3]; highest dose, 400 MBq/kg, n=5): 60%
Long time survivors (animals) ([3]; highest dose, 400 MBq/kg, n=5): 3 and 3 of 5
Long time survivors (animals) ([3]; highest dose, 400 MBq/kg, n=5, listed as 1): 3 of 5
P of increase in disease-free latency time compared to the other groups ([3]; highest dose, Kruskal-Wallis test): < 05
Lifetime after treatment ([3]; osteosarcoma model): dramatic increase in lifetime
Bone cancer lesions to healthy bone ratio [4]: inconclusive
Bone-seeking properties [5]: potent bone-seekers
Uptake in femur ([6]; 0.5 h (30 min) postinjection, i.v.): 45.03±6.75 % ID/g
Uptake in femur ([6]; 0.5 h (30 min) postinjection, i.v., listed as 3h): 45±7 % ID/g
Activity in blood ([6]; 0.5 h postinjection, i.v.): 15.92±12.75 % ID/g
Uptake in kidneys ([6]; 0.5 h postinjection, i.v.): 18.64±1.78 % ID/g
Uptake in skull ([6]; 0.5 h postinjection, i.v.): 24.61±3.85 % ID/g
Uptake in femur ([6]; 2 h postinjection (peak), i.v.): 45.54±4.10 % ID/g
Uptake in femur ([6]; 2 h postinjection (peak), i.v., listed as 3h): 46±4 % ID/g
Activity in blood ([6]; 2 h postinjection, i.v.): 1.36±0.25 % ID/g
Femur to soft tissue ratio ([6]; 24 h, soft tissue with highest uptake): ≥ 7
Uptake in femur ([6]; 24 h postinjection, i.v.): 37.79±11.78 % ID/g
Uptake in kidneys ([6]; 24 h postinjection, i.v.): 5.16±2.00 % ID/g
Uptake in liver ([6]; 24 h postinjection, i.v.): 2.27±0.69 % ID/g
Uptake in femur [6, 8]: 38±12 % ID/g
Uptake in kidneys [6, 8]: 5±2 % ID/g
Uptake in liver [6, 8]: 2±0.7 % ID/g
Uptake in femur expressed as % gram dose per gram tissue ([6]; balb/c mice, 20-25 g, 2 h, maximum uptake, listed as 1): 1025 (balb/c mice, 20-25 g, 2 h), % gram dose per gram tissue
Uptake in stomach ([6]; balb/c mice, 20-25 g, 24 h): 0.13 ± 0.01 % ID/g
Uptake in the thyroid ([6]; balb/c mice, 20-25 g, 24 h): 0.06 ± 0.04 % injected dose/organ
Ratio between uptake in femur and kidney ([6]; balb/c mice, 20-25 g, 24 h, listed as 1): 7.3 (femur/kidney, balb/c mice, 20-25 g,
Ratio between uptake in femur and kidney ([6]; balb/c mice, 20-25 g, 24 h, listed as 3h): 7
In vivo stability relative to compound 2 and 3 ([6]; from thyroid and stomach uptake, Table 3): about 7 times
Discomfort or toxicity after administration of samples ([6]; single bolus tail vein injection, 100 μl): No sign of discomfort or toxicity was observed
